# From publication PMC10958880, “Pocket Crafter: a 3D generative modeling based workflow for the rapid generation of hit molecules in drug discovery” (Journal of Cheminformatics, 2024)
# Columns and labels:
# Type in all cases: binding
# WDR5 [1] = biological target: T1, WDR5 (Homo sapiens, UniProt P61964); assay: DSF (Tm shift -4.[…] °C) plus WDR5-MYC peptide HTRF displacement with counter assay; parameters: full-length WDR5 (DSF); N-His, 1–334 (HTRF)
# WDR5 [2] = biological target: T1, WDR5; assay: DSF (Tm shift -1.[…] °C) plus WDR5-MYC peptide HTRF displacement with counter assay; parameters: full-length WDR5 (DSF); N-His, 1–334 (HTRF)
# WDR5 [3] = biological target: T1, WDR5; assay: WDR5-MYC peptide HTRF dose response, inactive in counter assay; parameters: N-His, 1–334; with MYC MbIIIb peptide (256–268 a.a.)
structure (smiles),measurement,setting,value
O=C(c1cc2ccccc2[nH]1)N1CCn2ncc(N3C[C@@H](CO)OC3=O)c2C1 [PC-1],IC50,WDR5 [1],35.6 µM
C[C@H]1Cc2noc(N3CCCCC3=O)c2CN1C(=O)c1cc2ccccc2[nH]1 [PC-2],IC50,WDR5 [2],27.5 µM
CC1(C)CN(c2cnn3c2CN(C(=O)c2cc4c([nH]2)CCCC4)CC3)C(=O)O1 [PC-3],IC50,WDR5 [3],28.5 µM
